A word on the IC50: it is the point on the concentration scale where inhibition reaches its midpoint. As usually defined, the inhibition is the drop in the measured response relative to a control, in per cent.

The text below walks through data of article PMC10914734 (Signal Transduction and Targeted Therapy, 2024).

Structures are written as SMILES. Like-named read-outs stand apart in the source and are kept apart here.

The target of the experiment is Human CTSL (Homo sapiens, UniProt P07711). Description: FRET-based cleavage assay, enzymatic inhibition of human CTSL. The note with it: for inhibition at 1 µM: read-out: Inhibition rate against human CTSL.
Human CTSL, sequence (P07711 114-333): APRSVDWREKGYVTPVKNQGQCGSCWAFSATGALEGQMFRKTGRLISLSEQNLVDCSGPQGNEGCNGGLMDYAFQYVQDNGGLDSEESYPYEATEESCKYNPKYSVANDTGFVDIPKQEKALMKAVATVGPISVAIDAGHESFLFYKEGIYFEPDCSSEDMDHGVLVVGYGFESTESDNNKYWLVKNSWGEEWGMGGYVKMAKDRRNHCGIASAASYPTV

Molecule `CC1(C)[C@@H]2[C@@H](C(=O)N[C@@H](C[C@@H]3CCCNC3=O)C(=O)C(=O)NCc3ccccc3)N(C(=O)c3cc4ccccc4o3)C[C@@H]21` [14m, (1R,2S,5S)-3-(benzofuran-2-carbonyl)-N-((S)-4-(benzylamino)-3,4-dioxo-1-((S)-2-oxopiperidin-3-yl)butan-2-yl)-6,6-dimethyl-3-azabicyclo[3.1.0]hexane-2-carboxamide] showed an IC50 of 1870 nM. As for `O=C(N/N=C/[C@H](C[C@@H]1CCCNC1=O)NC(=O)[C@H](Cc1ccc(F)cc1)NC(=O)c1cc2ccccc2o1)c1ccccc1` [14e, N-((S)-1-(((S,E)-1-(2-benzoylhydrazineylidene)-3-((S)-2-oxopiperidin-3-yl)propan-2-yl)amino)-3-(4-fluorophenyl)-1-oxopropan-2-yl)benzofuran-2-carboxamide], the midpoint of inhibition, the IC50, lay at 3940 nM. Turning to `O=C(O)/C(F)=C/[C@H](C[C@@H]1CCCNC1=O)NC(=O)[C@H](CC1CCCCC1)NC(=O)c1cc2ccccc2o1` [14i, (S,Z)-4-((S)-2-(benzofuran-2-carboxamido)-3-cyclohexylpropanamido)-2-fluoro-5-((S)-2-oxopiperidin-3-yl)pent-2-enoic acid], the IC50 worked out at 2160 nM.

In turn, `O=C(N[C@@H](Cc1ccc(F)cc1)C(=O)N[C@H](/C=C/S(=O)(=O)c1ccccc1)C[C@@H]1CCCNC1=O)c1cc2ccccc2o1` [14c, N-((S)-3-(4-fluorophenyl)-1-oxo-1-(((S,E)-1-((S)-2-oxopiperidin-3-yl)-4-(phenylsulfonyl)but-3-en-2-yl)amino)propan-2-yl)benzofuran-2-carboxamide] gave an IC50 of 50.3 ± 12.1 nM.

For `O=C(NC1CC1)/C(F)=C/[C@H](C[C@@H]1CCCNC1=O)NC(=O)[C@H](CC1CCCCC1)NC(=O)c1cc2ccccc2o1` [14k, N-((S)-3-cyclohexyl-1-(((S,Z)-5-(cyclopropylamino)-4-fluoro-5-oxo-1-((S)-2-oxopiperidin-3-yl)pent-3-en-2-yl)amino)-1-oxopropan-2-yl)benzofuran-2-carboxamide], the inhibition at 1 µM worked out at 37%.

As to `O=C(N[C@@H](CC1C=CC=CC1)C(=O)N[C@H](/C=C/S(=O)(=O)c1ccccc1)C[C@@H]1CCCNC1=O)c1cc2ccccc2o1` (stereo partly drawn) [14d, N-((2S)-3-(cyclohexa-2,4-dien-1-yl)-1-oxo-1-(((S,E)-1-((S)-2-oxopiperidin-3-yl)-4-(phenylsulfonyl)but-3-en-2-yl)amino)propan-2-yl)benzofuran-2-carboxamide], the half-inhibitory concentration (IC50) (read-out: IC50, enzymatic inhibitory activity against human CTSL, mean ± SD) was 77.2 ± 12 nM. For the molecule `CCOC(=O)/C(F)=C/[C@H](C[C@@H]1CCCNC1=O)NC(=O)[C@H](CC1CCCCC1)NC(=O)c1cc2ccccc2o1` [14j, Ethyl (S,Z)-4-((S)-2-(benzofuran-2-carboxamido)-3-cyclohexylpropanamido)-2-fluoro-5-((S)-2-oxopiperidin-3-yl)pent-2-enoate], the inhibition at 1 µM worked out at 30%. `O=C(N[C@@H](Cc1ccc(F)cc1)C(=O)N[C@H](/C=N/Nc1ncccn1)C[C@@H]1CCCNC1=O)c1cc2ccccc2o1` [14h, N-((S)-3-(4-fluorophenyl)-1-oxo-1-(((S,E)-1-((S)-2-oxopiperidin-3-yl)-3-(2-(pyrimidin-2-yl)hydrazineylidene)propan-2-yl)amino)propan-2-yl)benzofuran-2-carboxamide]: half-maximal inhibition (IC50) required 1600 nM. `O=C(N[C@@H](Cc1ccc(F)cc1)C(=O)N[C@H](/C=N/NC(=O)C1CCCCC1)C[C@@H]1CCCNC1=O)c1cc2ccccc2o1` [14f, N-((S)-1-(((S,E)-1-(2-(cyclohexanecarbonyl)hydrazineylidene)-3-((S)-2-oxopiperidin-3-yl)propan-2-yl)amino)-3-(4-fluorophenyl)-1-oxopropan-2-yl)benzofuran-2-carboxamide] showed an IC50 of 8530 nM. `O=C(NCc1ccccc1)C(=O)[C@H](C[C@@H]1CCCNC1=O)NC(=O)[C@@H]1[C@H]2CCC[C@H]2CN1C(=O)c1cc2ccccc2o1` [14l, (1S,3aR,6aS)-2-(benzofuran-2-carbonyl)-N-((S)-4-(benzylamino)-3,4-dioxo-1-((S)-2-oxopiperidin-3-yl)butan-2-yl)octahydrocyclopenta[c]pyrrole-1-carboxamide]: the inhibition at 1 µM came to 12%. `O=C(N[C@@H](Cc1ccc(F)cc1)C(=O)N[C@H](/C=N/NC(=O)C1CC1)C[C@@H]1CCCNC1=O)c1cc2ccccc2o1` [14g, N-((S)-1-(((S,E)-1-(2-(cyclopropanecarbonyl)hydrazineylidene)-3-((S)-2-oxopiperidin-3-yl)propan-2-yl)amino)-3-(4-fluorophenyl)-1-oxopropan-2-yl)benzofuran-2-carboxamide] showed an IC50 of 1320 nM.
